Measured values from patent US8133998B2, “Bicyclic pyrimidine derivatives as calcium channel blockers” (Zalicus Pharmaceuticals, Ltd., priority 2007, dated 2012).

Columns and labels:
[1] = molecular target: T1, human α1G T-type channels (Homo sapiens, UniProt O43497); assay: T-type calcium channel block, whole cell patch clamp in HEK cells; type: cell-based; conditions: HEK cells stably expressing human α1G; measured at 1 μM drug; mainly non-inactivated protocol
T1 construct: expressed in transfected cells; host or cells: HEK 293
Method in brief: (§1)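 Whole-cell patch clamp on HEK293 cells stably expressing the channel; holding −110 mV, 1-s prepulse −100 mV (resting block) or ~−85 mV (inactivated), test pulse −40 mV for 50 ms. Compounds in external solution with 0.1–0.01% DMSO, gravity-applied; Kd from block at 1 μM or 200 nM.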

[2] = molecular target: T2, human α1H T-type channels (Homo sapiens, UniProt O95180); assay: as above; type: cell-based; conditions: HEK cells stably expressing human α1H; measured at 1 μM drug; mainly non-inactivated protocol
T2 construct: expressed in transfected cells; host or cells: HEK 293
Method in brief: as §1

[3] = molecular target: T3, human α1I T-type channels (Homo sapiens, UniProt Q9P0X4); assay: as above; type: cell-based; conditions: HEK cells stably expressing human α1I; measured at 1 μM drug; mainly non-inactivated protocol
T3 construct: expressed in transfected cells; host or cells: HEK 293
Method in brief: as §1

[4] = test system: spinal nerve ligation model of neuropathic pain; conditions: rats; cited from earlier work
[5] = test system: T-type over L-type channels; conditions: cited from earlier work

T2 sequence (O95180 whole entry): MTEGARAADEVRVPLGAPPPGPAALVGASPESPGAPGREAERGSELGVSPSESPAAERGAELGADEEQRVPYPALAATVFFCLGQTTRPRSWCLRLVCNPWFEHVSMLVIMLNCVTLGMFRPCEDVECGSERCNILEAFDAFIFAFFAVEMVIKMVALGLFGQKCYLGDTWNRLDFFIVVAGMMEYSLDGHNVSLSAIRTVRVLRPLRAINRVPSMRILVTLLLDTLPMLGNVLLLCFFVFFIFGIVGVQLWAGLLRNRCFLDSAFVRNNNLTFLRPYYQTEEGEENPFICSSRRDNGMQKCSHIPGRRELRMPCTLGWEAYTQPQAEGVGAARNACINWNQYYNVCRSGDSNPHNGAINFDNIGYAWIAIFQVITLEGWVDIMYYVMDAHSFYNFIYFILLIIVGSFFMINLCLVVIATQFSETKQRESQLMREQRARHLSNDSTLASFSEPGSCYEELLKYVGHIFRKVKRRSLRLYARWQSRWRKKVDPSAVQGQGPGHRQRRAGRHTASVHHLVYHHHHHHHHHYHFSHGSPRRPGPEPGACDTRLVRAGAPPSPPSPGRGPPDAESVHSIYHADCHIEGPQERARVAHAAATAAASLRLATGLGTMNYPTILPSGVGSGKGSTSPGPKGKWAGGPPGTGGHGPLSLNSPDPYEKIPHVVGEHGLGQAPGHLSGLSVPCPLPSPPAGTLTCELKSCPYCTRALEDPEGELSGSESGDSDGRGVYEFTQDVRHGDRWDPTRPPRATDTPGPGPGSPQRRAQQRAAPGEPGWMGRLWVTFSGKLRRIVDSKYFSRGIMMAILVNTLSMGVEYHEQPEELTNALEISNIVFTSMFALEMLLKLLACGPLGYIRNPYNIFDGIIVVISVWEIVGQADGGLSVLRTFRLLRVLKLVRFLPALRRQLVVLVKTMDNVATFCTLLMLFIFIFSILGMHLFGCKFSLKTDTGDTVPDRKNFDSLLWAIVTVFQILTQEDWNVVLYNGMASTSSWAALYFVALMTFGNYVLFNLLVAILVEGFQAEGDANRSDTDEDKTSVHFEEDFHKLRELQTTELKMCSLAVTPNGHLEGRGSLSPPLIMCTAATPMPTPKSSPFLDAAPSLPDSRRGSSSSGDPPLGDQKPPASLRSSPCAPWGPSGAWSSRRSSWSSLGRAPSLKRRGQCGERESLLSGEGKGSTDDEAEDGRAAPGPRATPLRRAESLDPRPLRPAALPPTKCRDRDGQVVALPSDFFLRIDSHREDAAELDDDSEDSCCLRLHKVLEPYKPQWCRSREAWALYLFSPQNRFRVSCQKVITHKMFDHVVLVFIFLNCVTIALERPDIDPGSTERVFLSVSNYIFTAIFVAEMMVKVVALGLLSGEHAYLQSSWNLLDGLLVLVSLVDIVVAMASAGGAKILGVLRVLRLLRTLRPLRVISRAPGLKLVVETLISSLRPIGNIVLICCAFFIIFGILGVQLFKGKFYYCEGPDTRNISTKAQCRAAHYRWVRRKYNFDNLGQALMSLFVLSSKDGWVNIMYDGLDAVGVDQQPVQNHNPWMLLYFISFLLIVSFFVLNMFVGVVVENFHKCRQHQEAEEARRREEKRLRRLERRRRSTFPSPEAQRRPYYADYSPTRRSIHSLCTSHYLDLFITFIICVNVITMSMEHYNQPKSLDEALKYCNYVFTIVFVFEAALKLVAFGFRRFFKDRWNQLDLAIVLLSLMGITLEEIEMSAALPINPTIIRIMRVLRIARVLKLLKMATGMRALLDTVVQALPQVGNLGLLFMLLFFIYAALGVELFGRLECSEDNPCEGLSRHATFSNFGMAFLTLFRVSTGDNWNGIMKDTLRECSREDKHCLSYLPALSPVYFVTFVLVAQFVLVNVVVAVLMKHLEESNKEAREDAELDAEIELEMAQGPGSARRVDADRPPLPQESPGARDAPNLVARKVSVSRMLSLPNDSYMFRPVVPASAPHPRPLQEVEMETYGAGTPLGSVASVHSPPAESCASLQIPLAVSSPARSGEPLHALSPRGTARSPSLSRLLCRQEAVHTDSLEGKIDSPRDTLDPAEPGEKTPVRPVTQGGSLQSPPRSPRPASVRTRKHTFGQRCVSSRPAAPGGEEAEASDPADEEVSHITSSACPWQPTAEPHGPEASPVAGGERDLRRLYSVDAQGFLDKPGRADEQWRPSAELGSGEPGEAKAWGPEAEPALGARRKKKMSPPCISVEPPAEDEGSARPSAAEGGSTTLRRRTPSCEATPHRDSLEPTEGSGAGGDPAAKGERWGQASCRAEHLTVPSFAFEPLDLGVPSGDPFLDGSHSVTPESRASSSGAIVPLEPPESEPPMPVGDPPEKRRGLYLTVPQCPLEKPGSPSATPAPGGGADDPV
T3 sequence (Q9P0X4 whole entry): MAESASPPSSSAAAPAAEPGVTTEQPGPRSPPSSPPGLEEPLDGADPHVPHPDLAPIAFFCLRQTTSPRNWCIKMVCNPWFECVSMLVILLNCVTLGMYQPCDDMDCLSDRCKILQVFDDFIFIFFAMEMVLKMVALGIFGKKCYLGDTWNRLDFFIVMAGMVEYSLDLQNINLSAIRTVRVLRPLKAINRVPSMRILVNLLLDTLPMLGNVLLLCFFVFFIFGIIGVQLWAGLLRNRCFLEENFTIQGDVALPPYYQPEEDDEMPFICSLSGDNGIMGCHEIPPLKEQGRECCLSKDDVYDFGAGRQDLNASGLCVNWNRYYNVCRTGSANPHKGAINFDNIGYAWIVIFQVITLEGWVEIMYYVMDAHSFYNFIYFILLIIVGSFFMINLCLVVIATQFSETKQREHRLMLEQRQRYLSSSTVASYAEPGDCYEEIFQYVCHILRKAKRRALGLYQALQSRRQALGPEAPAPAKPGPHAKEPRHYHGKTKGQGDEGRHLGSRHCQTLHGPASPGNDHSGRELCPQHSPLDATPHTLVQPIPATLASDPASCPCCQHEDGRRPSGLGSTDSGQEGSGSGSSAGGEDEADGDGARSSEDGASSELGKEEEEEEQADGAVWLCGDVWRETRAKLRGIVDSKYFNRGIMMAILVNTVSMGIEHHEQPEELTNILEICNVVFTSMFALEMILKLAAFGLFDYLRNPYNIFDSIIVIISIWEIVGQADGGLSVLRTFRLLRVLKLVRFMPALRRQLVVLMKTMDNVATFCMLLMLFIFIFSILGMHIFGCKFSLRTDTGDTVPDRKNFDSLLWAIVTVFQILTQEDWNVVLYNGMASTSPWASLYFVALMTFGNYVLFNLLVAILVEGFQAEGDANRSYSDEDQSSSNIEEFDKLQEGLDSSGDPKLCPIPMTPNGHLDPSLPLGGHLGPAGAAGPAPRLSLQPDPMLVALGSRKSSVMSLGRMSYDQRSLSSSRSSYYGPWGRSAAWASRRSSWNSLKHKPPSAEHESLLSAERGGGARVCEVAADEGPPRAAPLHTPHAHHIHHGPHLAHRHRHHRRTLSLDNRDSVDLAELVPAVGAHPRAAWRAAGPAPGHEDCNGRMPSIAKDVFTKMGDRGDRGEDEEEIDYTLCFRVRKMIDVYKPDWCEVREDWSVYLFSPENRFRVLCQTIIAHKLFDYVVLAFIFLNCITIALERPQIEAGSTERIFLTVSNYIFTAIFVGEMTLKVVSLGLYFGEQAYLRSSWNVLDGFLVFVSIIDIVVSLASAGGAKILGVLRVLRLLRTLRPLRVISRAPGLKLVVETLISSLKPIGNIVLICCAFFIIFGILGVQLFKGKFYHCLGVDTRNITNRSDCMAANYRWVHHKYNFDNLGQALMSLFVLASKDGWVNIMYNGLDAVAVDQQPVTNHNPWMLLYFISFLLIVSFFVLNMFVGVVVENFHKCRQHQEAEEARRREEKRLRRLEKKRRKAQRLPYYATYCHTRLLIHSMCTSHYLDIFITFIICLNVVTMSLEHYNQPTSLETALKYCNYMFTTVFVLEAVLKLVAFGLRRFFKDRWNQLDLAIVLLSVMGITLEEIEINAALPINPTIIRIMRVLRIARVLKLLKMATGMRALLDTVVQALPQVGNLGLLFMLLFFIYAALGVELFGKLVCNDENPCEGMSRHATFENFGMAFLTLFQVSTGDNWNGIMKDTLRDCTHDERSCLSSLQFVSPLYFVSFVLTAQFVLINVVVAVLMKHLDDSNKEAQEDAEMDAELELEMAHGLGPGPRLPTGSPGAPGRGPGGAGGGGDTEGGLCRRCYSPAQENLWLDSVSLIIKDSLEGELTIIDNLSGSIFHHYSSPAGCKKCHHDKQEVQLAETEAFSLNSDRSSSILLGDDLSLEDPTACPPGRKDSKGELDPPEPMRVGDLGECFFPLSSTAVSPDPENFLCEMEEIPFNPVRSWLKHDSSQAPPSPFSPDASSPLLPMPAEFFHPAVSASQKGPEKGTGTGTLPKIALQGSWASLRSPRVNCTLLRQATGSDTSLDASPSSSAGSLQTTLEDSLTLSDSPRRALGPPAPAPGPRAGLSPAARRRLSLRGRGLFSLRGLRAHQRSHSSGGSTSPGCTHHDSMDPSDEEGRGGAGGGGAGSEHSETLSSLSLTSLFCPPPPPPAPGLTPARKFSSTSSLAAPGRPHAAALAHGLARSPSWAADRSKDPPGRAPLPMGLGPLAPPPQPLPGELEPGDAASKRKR

SMILES | Kd [1] [µM] | Kd [2] [µM] | Kd [3] [µM] | anti-hyperalgesic activity in the spinal nerve ligation model of neuropathic pain [4] | selective for T-type over L-type channels [5]
Cc1c(C(=O)N2CCN(c3ccc(Cl)c(Cl)c3)CC2)sc2ncn(CC(=O)N3CCCC3)c(=O)c12 [Compound 135, 6-(4-(3,4-dichlorophenyl)piperazine-1-carbonyl)-5-methyl-3-(2-oxo-2-(pyrrolidin-1-yl)ethyl)thieno[2,3-d]pyri-midin-4(3H)-one] | 9.9 | 0.33 | 1.38 | – | –
Cc1c(C(=O)N2CCN(c3ccccc3)CC2)sc2ncn(C(C)C(=O)NC3CCCCC3)c(=O)c12 (stereo not drawn) [Compound 33, N-cyclohexyl-2-(5-methyl-4-oxo-6-(4-phenylpiperazine-1-carbonyl)thieno[2,3-d]pyrimidin-3(4H)-yl)propanamide] | 16.5 | 0.35 | 5.13 | – | –
Cc1c(C(=O)N2CCN(c3ccc(Cl)cc3)CC2)sc2ncn(CC(=O)NC3CCCCC3)c(=O)c12 [Compound 20, 2-(6-(4-(4-chlorophenyl)piperazine-1-carbonyl)-5-methyl-4-oxothieno[2,3-d]pyrimidin-3(4H)-yl)-N-cyclohexylacetamide] | 0.33 | 0.18 | 2.1 | – | –
CCC1(C)CC(=O)NC1=O (stereo not drawn) [ethosuximide] | – | – | – | anti-hyperalgesic activity | –
Cc1c(C(=O)N2CCN(c3ccccc3)CC2)sc2ncn(CC(=O)NC3CCCCC3)c(=O)c12 [Compound 19, N-cyclohexyl-2-(5-methyl-4-oxo-6-(4-phenylpiperazine-1-carbonyl)thieno[2,3-d]pyrimidin-3(4H)-yl)acetamide] | 3.6 | 0.36 | 2.38 | – | –
COCC(=O)O[C@]1(CCN(C)CCCc2nc3ccccc3[nH]2)CCc2cc(F)ccc2[C@@H]1C(C)C [Mibefradil] | – | – | – | anti-hyperalgesic activity | 10-30 fold
Cc1c(C(=O)N2CCN(c3cccc(Cl)c3)CC2)sc2ncn(CC(=O)N3CCCC3)c(=O)c12 [Compound 73, 6-(4-(3-chlorophenyl)piperazine-1-carbonyl)-5-methyl-3-(2-oxo-2-(pyrrolidin-1-yl)ethyl)thieno[2,3-d]pyrimidin-4(3H)-one] | 1.46 | 0.22 | 8.8 | – | –
CCN(CC)C(=O)Cn1cnc2sc(C(=O)N3CCN(c4ccc(Cl)c(Cl)c4)CC3)c(C)c2c1=O [Compound 6, 2-(6-(4-(3,4-dichlorophenyl)piperazine-1-carbonyl)-5-methyl-4-oxothieno[2,3-d]pyrimidin-3(4H)-yl)-N,N-diethylacetamide] | 0.95 | 0.34 | 9.67 | – | –
Cc1c(C(=O)N2CCN(c3cccc(Cl)c3)CC2)sc2ncn(CC(=O)NC3CCCC3)c(=O)c12 [Compound 37, 2-(6-(4-(3-chlorophenyl)piperazine-1-carbonyl)-5-methyl-4-oxothieno[2,3-d]pyrimidin-3(4H)-yl)-N-cyclopentylacetamide] | 0.3 | 0.17 | 3.29 | – | –

Continued, in another order:

Kd [1] [µM] | Kd [2] [µM] | Kd [3] [µM] | SMILES | anti-hyperalgesic activity in the spinal nerve ligation model of neuropathic pain [4] | selective for T-type over L-type channels [5]
1.22 | 0.3 | > 31.3 | CCN(CC)C(=O)Cn1cnc2sc(C(=O)N3CCN(c4ccc(C(F)(F)F)cc4)CC3)c(C)c2c1=O [Compound 10, N,N-diethyl-2-(5-methyl-4-oxo-6-(4-(4-(trifluoromethyl)phenyl)piperazine-1-carbonyl)thieno[2,3-d]pyrimidin-3(4H)-yl)acetamide] | – | –
0.19 | 1.04 | 0.58 | Cc1c(C(=O)N2CCN(c3cc(C(F)(F)F)cc(C(F)(F)F)c3)CC2)sc2ncn(CC(=O)Nc3ccccc3)c(=O)c12 [Compound 53, 2-(6-(4-(3,5-bis(trifluoromethyl)phenyl)piperazine-1-carbonyl)-5-methyl-4-oxothieno[2,3-d]pyrimidin-3(4H)-yl)-N-phenylacetamide] | – | –
0.23 | 2.73 | 0.71 | Cc1c(C(=O)N2CCCCC2)sc2ncn(CC(=O)Nc3cc(C(F)(F)F)cc(C(F)(F)F)c3)c(=O)c12 [Compound 69, N-(3,5-bis(trifluoromethyl)phenyl)-2-(5-methyl-4-oxo-6-(piperidine-1-carbonyl)thieno[2,3-d]pyrimidin-3(4H)-yl)acetamide] | – | –
0.2 | 0.7 | 0.08 | Cc1c(C(=O)N2CCN(c3ccccc3F)CC2)sc2ncn(CC(=O)Nc3cc(C(F)(F)F)cc(C(F)(F)F)c3)c(=O)c12 [Compound 64, N-(3,5-bis(trifluoromethyl)phenyl)-2-(6-(4-(2-fluorophenyl)piperazine-1-carbonyl)-5-methyl-4-oxothieno[2,3-d]pyrimidin-3(4H)-yl)acetamide] | – | –
1.01 | 0.35 | 8.79 | Cc1c(C(=O)N2CCN(c3ccccc3)CC2)sc2ncn(CC(=O)Nc3ccccc3)c(=O)c12 [Compound 52, 2-(5-methyl-4-oxo-6-(4-phenylpiperazine-1-carbonyl)thieno[2,3-d]pyrimidin-3(4H)-yl)-N-phenylacetamide] | – | –
0.35 | 7.59 | 1.04 | CNC(=O)c1sc2ncn(CC(=O)Nc3cc(C(F)(F)F)cc(C(F)(F)F)c3)c(=O)c2c1C [Compound 66, 3-(2-(3,5-bis(trifluoromethyl)phenylamino)-2-oxoethyl)-N,5-dimethyl-4-oxo-3,4-dihydrothieno[2,3-d]pyrimidine-6-carboxamide] | – | –
0.1 | 0.1 | 2.14 | Cc1c(C(=O)N2CCN(c3ccc(Cl)c(C(F)(F)F)c3)CC2)sc2ncn(CC(=O)NC3CCCC3)c(=O)c12 [Compound 38, 2-(6-(4-(4-chloro-3-(trifluoromethyl)phenyl)piperazine-1-carbonyl)-5-methyl-4-oxothieno[2,3-d]pyrimidin-3(4H)-yl)-N-cyclopentylacetamide] | – | –
0.24 | 0.38 | > 0.95 | Cc1c(C(=O)N2CCN(c3ccccc3)CC2)sc2ncn(CC(=O)Nc3cc(F)cc(F)c3)c(=O)c12 [Compound 55, 2-(6-(4-phenylpiperazine-1-carbonyl)-5-methyl-4-oxothieno[2,3-d]pyrimidin-3(4H)-yl)-N-(3,5-difluorophenyl)acetamide] | – | –
